Reference: patent EP2133323B1, “The production and use of 3,5-dicaffeoyl-4-malonylquinic acid” (I.R.B. Istituto Di Ricerche Biotecnologiche S.r.l., priority 2008, dated 2009)

How the values were obtained:
[1] = test system: mouse B16F1 melanoma cells; assay: Inhibition of MSH-stimulated melanin production (depigmenting activity); type: cell-based; details: 1 mg/mL, 100 nM MSH, 24 hours; for % inhibition vs AK: relative to kojic acid
Protocol: The bleaching activity of the compound obtained by cell culture of Centella asiatica has been determined by evaluating the inhibition of melanin production, stimulated by the addition of MSH (melanocyte stimulating hormone) in mouse B16F1 melanoma cells. The test has been prepared by seeding mouse B16F1 melanoma cells in DMEM culture medium + 10% FBS in 25 cm^2 flasks. On reaching 80% confluency, the culture medium has been replaced with conditioned medium (containing 100 nM MSH and the test compounds). The cells in the conditioned medium have been incubated for 24 hours at 37°C and 5% CO2. On termination of incubation, the cells have been washed twice with PBS and then detached using a Trypsin-EDTA solution. After washing twice with PBS, the detached cells have been resuspended in the same solution. A small aliquot has been removed from the suspension for the purpose of conducting the MTT cell viability test, while the remainder has been used to extract the cell melanin content. The melanin content has been determined by spectrophotometric measurements at 405 nm, and calculated by means of a calibration curve obtained using a melanin standard. The optical density value obtained has been normalised for the number of viable cells obtained by means of the MTT test. The percentage inhibition of melanin production has been calculated from the percentage ratio between the value obtained from the cells treated with the extracts, and the value obtained from the control cells, treated with MSH alone. The results obtained from testing the compound at a concentration of 1 mg/ml compared to kojic acid at the same concentration, are reported in table 8 below: TABLE 8

[2] = Antioxidant activity by the DPPH method; type: biochemical
Text: The antioxidant activity of the compound 3,5-dicaffeoyl-4-malonylquinic acid compared to known molecules such as ascorbic acid and rutin, has been determined by means of the DPPH method, according to the instructions reported in J. Buenger et al.; International Journal of Cosmetic Science, 2006, 28: 135-146.

type-2 HSV virus = assay: Anti-HSV2 antiviral activity in Vero cell model (XTT read-out); type: cell-based, type-2 Herpes simplex virus (HSV) strain 333; details: at a concentration of 200 µg/ml; compared to positive control (infected, no test substance); MOI 0.1; 72 hours
Protocol: The antiviral activity of 3,5-dicaffeoyl-4-malonylquinic acid towards type-2 HSV virus has been assayed using a Vero cell model. The assay has been conducted using acyclovir as a comparator.
Vero cells have been seeded into 96 well plates at a concentration of 5x10^4 cells/well. After 4 hours incubation at 37°C in 5% CO2, the cells have been infected with strain 333 of the type-2 Herpes simplex virus (HSV) at a multiplicity of infection (MOI) of 0.1 infective viral particles/cell. Various concentrations of 3,5-dicaffeoyl-4-malonylquinic acid (CA1) have been added in triplicate to the cell monolayers. Some wells have been infected in the absence of test compound (POSITIVE CONTROL), others have not been infected and have not been treated with the test compound (NEGATIVE CONTROL), others still have been treated with various concentrations of acyclovir (ACYC), representing the comparator substance. The infected cells have then been incubated in medium plus 2% FBS for 72 hours. On completion of said incubation period, the medium has been removed from each well by aspiration. Following washing in PBS and aspiration, 50 µl of a solution consisting of […] and 1 mg/ml XTT has been added to each well. […] The optical density has been measured using an ELISA plate reader set at a wavelength of 450 nm and 630 nm.

metalloproteinases (MMP) = assay: Metalloproteinase inhibition, 3D model with type-1 collagen gel and BALB 3T3 fibroblasts (hydroxyproline content); type: cell-based; details: 48 hours; at higher concentrations collagen increases only through reduced cell number
Text: Metalloproteinase inhibitory activity has been evaluated by preparation of an in vitro assay known as the "3D model" envisaging the use of a type-1 collagen gel and BALB 3T3 fibroblast cells. In this assay model, fibroblasts acquire the property of secreting metalloproteinases (MMP), such as collagenase, gelatinase, elastase etc. through modulation by cytokines or other inflammatory mediators (Lim H., Kim HP, Planta Medica, 2007, 12:1267-1274). Balb 3T3 cells (4*10^6 cells/ms) are inoculated in a culture medium (DMEM + 10% FBS) containing a type 1 collagen 3D gel supplemented with increasing concentrations of the test compound. After incubation for 48 hours at 37°C in 5% CO2, the collagen content is measured by means of an indirect method (hydroxyproline content); in parallel, the effect of treatment on cell viability, or on the growth inhibitory effect, is also assessed. The result is expressed as the %age of hydroxyproline present in the 3D gel, compared to the control, or untreated, culture (NB: the collagen content in the absence of cells is reported as positive control). From the results obtained, it is evident that treatment with 3,5 dicaffeoyl-4-malonylquinic acid is effective up to a concentration of 400 µg/ml. For higher concentrations, the collagen content increases purely as a result of the reduced number of cells.

[3] = test system: DNBS induced colitis model; assay: DNBS induced colitis model in rats (anti-inflammatory activity); type: in vivo, Sprague-Dawley rats; details: four days after DNBS
Text: Evaluation of the anti- inflammatory activity of 3, 5-dicaffeoyl-4-malonylquinic acid has been determined on an in vivo induced colitis model. Colitis has been induced in rats using a colon inflammation model, stimulated by DNBS ([…] acid). After 4 days of induction of inflammation, the following parameters have been evaluated: determination of colon damage by means of morphological and histological analysis; determination of myeloperoxidase activity and determination of body weight. The animals used have been subdivided into four experimental groups (10 Sprague-Dawley rats weighing 200-250 g in each group) : • one control group, to which only carrier has been administered (CTR); • one group, to which DNBS plus carrier has been administered (DNBS); • one group, to which DNBS and 3,5-dicaffeoyl-4-malonylquinic acid has been administered: the compound has been administered orally at a concentration of 2 mg/kg for 4 consecutive days following the administration of DNBS; • one group, to which DNBS and 3,5-dicaffeoyl-4-malonylquinic acid has been administered: the compound has been administered orally at a concentration of 0.2 mg/kg for 4 consecutive days following the administration of DNBS.
Four days after the administration of DNBS, the following investigations have been conducted: • evaluation of colon damage by means of morphological and histological analysis (a score is assigned on the basis of the damage observed); • evaluation of myeloperoxidase activity and • determination of body weight.

[4] = test system: Malassezia furfur DSMZ4167; assay: Multiple dilution antimicrobial assay, CFU count in culture-broth; type: cell-based; details: for T7d: sample at 7 days, 30°C
Protocol: (§1) With the aim of identifying any potential antimicrobial activity in the compound 3,5-dicaffeoyl-4-malonylquinic acid, microbiological assays, generally known as multiple dilution assays, have been prepared. The results obtained from said assays have shown the antimicrobial activity of the compound against the following strains: • Staphylococcus aureus ATCC6538 • Malassezia furfur DSMZ4167
(§2) The compound has been tested at concentrations of 5 mg/ml, 2 mg/ml and 1 mg/ml.
(§3) The microbial strains used for testing have been inoculated into culture-broth (in Tryptone soy broth medium, for Malassezia furfur the culture medium has been supplemented with 2 ml/100 ml of olive oil) containing the test compound at the concentrations described above. In parallel with these tests, culture broths containing the microbial strain alone have been prepared (controls). The culture-broths have been incubated at 30°C for a period of 7 days. Samples of the various culture-broths have been taken at 0 and 7 days, with the aim of counting the number of CFU/ml in relation to the various microbial strains, by plating the cultures on solid medium. A certain number of serial dilutions have been prepared for each sample in order to determine the microbial load of each culture-broth. Each dilution has been assayed in triplicate on solid medium. Then number of CFUs reported in the table is the mean of the counts performed on the triplicate assays. Table 4: the effect of 3,5-dicaffeoyl-4-malonylquinic acid on the growth of Staphylococcus aureus ATCC 6538

[5] = test system: Staphylococcus aureus ATCC6538; assay: as above; type: cell-based
Protocol: as §1, §2, §3

[6] = UV absorption (sun-screen activity), spectrophotometry 250-400 nm; type: physicochemical
Text: This example reports the test to determine the UV absorption of the molecule 3,5-dicaffeoyl-4-malonylquinic acid compared to a commercially available molecule widely used as a sun screen (PARSOL MCX).
The compounds have been examined in an aqueous solution of: • 0.2 M phosphate buffer pH 5.0 • 0.1 M HCl solution at pH 1.0.
The pH 5.0 buffer has been selected as the condition used most frequently in the preparation of sun screens. The pH 1.0 solution has been examined in order to also observe the stability of the compounds at extreme pH values.
The analyses have been conducted using a Shimadzu model UV 1601 spectrophotometer, analysing the spectrum from 250 nm to 400 nm in order to ascertain the absorption of UVA and UVB.
The results report the absorption values at maximum wavelength (λ Max) and at 330 nm, this being the wavelength most frequently used for quantitative measurements for the products in question.
The values are expressed in: • specific extinction, corresponding to the extinction at the given λ for a solution at a concentration of 1.0 µg/mL. • Epsilon = the molar absorption, calculated using the formula Epsilon = A/C*L [formula] where A is the absorption value in mAU, C is the concentration of the solution in moles and L is the path length of the solutions in cm (always 1 cm).

[7] = DNBS + 0.2 mg/kg orally for 4 consecutive days
[8] = DNBS + 2 mg/kg orally for 4 consecutive days
[9] = pH 1.0, second line, printed beside 326 nm (330 nm line empty)
[10] = pH 5.0 (0.2 M phosphate buffer), λ Max line
[11] = pH 5.0, second line, printed beside 325 nm (330 nm line empty)

SMILES: O=c1cc(CO)occ1O [Kojic acid, reference compound]
- inhibition at 1000 µg/mL ([1]; Mus musculus, B16-F1, melanin production): 70%
- % inhibition vs AK [1]: 100%

SMILES: O=C1O[C@H]([C@@H](O)CO)C(O)=C1O [Ascorbic acid, reference compound]
- IC50 [2]: 1000 nM

SMILES: O=C(O)CC(=O)OC1C(OC(=O)/C=C/c2ccc(O)c(O)c2)CC(O)(C(=O)O)CC1OC(=O)/C=C/c1ccc(O)c(O)c1 (stereo not shown) [3,5-dicaffeoyl-4-malonylquinic acid]
- IC50 [2]: 3760 nM
- antiviral activity (type-2 HSV virus): good antiviral activity
- concentration up to which treatment is effective (collagen content, hydroxyproline) (metalloproteinases (MMP)): ≤ 400 µg/mL
- Histological score [3, 7]: 1.60
- Myeloperoxidase activity [3, 7]: 513.00 U/g fresh weight
- Histological score [3, 8]: 1.55
- Myeloperoxidase activity [3, 8]: 486.90 U/g fresh weight
- T7d ([4]; 2 mg/ml): <100 CFU/ml
- T7d ([4]; 5mg/ml): <100 CFU/ml
- antimicrobial activity ([4]; at a concentration of 2 mg/ml): exerts antimicrobial activity
- T7d ([5]; 5mg/ml, sample at 7 days, 30°C): <100 CFU/ml
- antimicrobial activity ([5]; at a concentration of 5 mg/ml): exerts antimicrobial activity
- % inhibition ([1]; melanin production): 33.8%
- % inhibition vs AK [1]: 48%
- Epsilon ([6]; pH 1.0 (0.1 M HCl), λ Max line): 28.539
- Spec. abs. (1 µg/ml) ([6]; pH 1.0 (0.1 M HCl), λ Max line): 47.9 mAU
- Epsilon [6, 9]: 28.138
- Spec. abs. (1 µg/ml) [6, 9]: 47.2 mAU
- Epsilon [6, 10]: 30.602
- Spec. abs. (1 µg/ml) [6, 10]: 51.3 mAU
- Epsilon [6, 11]: 29.972
- Spec. abs. (1 µg/ml) [6, 11]: 50.3 mAU
